{"source": "patent US4521423A", "about": "“7,8,9,10-Tetrahydrobenzo[h]quinolin-9-amine derivatives and compositions and methods for treating depression employing them” (Ayerst, McKenna & Harrison, Ltd., priority 1983, dated 1985)", "key": {"norepinephrine uptake": {"tested_on": "norepinephrine uptake", "assay": "in vitro [3H]norepinephrine uptake inhibition, rat brain preparation", "format": "biochemical", "settings": "concentration of 1×10^-6 moles", "text": "(§1) For example, the ability of the present compounds to block substantially the uptake of norepinephrine and serotonin, characteristic properties of antidepressants, can be shown in the in vitro test using rat brain preparation as described by M. H. Kannengiesser, P. Hunt and J.-P. Raynaud, Biochem. Pharmacol., 22, 73 (1973); see also E. G. Shaskan and S. H. Snyder, J. Pharmacol. Exptl. Therap., 175, 404 (1970), and J. Glowinski and L. L. Iversen, J. Neurochemistry, 13, 655 (1966)."}, "serotonin uptake": {"tested_on": "serotonin uptake", "assay": "in vitro [3H]serotonin uptake inhibition, rat brain preparation", "format": "biochemical", "settings": "concentration of 1×10^-6 moles", "text": "as §1"}}}
{"smiles": "CCCN(CCC)C1CCc2ccc3cccnc3c2C1", "note": "(centres unmarked) [7,8,9,10-Tetrahydro-N,N-dipropylbenzo[h]quinolin-9-amine]", "values": [{"measurement": "inhibition of [3H]norepinephrine uptake", "setting": "norepinephrine uptake", "value": 52, "unit": "%"}, {"measurement": "inhibition of [3H]serotonin uptake", "setting": "serotonin uptake", "value": 57, "unit": "%"}]}
